Reference: PubChem BioAssay AID2250 (Sanford-Burnham Center for Chemical Genomics, 2010)
Activity calls are given as the source filed them. The rule behind the calls is not given here.

Test system: MCF-7/NOD1 cells, GM-Tri-DAP induced IL-8 secretion
Experiment: inhibition of NOD1-driven IL-8 release, SAR follow-up, MCF-7/NOD1 cells, GM-Tri-DAP stimulus (AID 2250)

IC50	SMILES
> 5 µM (inactive)	Cc1ccc(S(=O)(=O)n2c(N)nc3cc(C)c(C)cc32)cc1
> 25 µM (inactive)	O=C(O)c1c(NC(=O)N2CCOCC2)sc2c1CCCC2
